Consider six molecules from ChEMBL document CHEMBL1142226, “Impact of physicochemical and structural properties on the pharmacokinetics of a series of alpha1L-adrenoceptor antagonists” (Drug Metab Dispos, 2007).

The structures appear in SMILES notation. A value given as a limit tells only on which side of the number the result lay.

In one data set the test system is Liver. Briefly: Unbound intrinsic clearance in Beagle dog liver microsomes at 1 uM. Format: ADME, Canis lupus familiaris, Microsome. Background: Microsomes from liver hold many membrane-bound enzymes, among them those of drug oxidation.
Data set [1] relates to Canis familiaris. The experiment in a line: Unbound volume of distribution in Beagle dog at 0.5 mg/kg, iv. It counts as ADME, organism-based, Canis lupus familiaris. Set-up: dose 0.5 mg/kg, route intravenous. The following applies: in vivo.
A short description of data set [2]: Dissociation constant, pKa of the compound. Format: physicochemical.
A short description of data set [3]: Oral absorption in Beagle dog at 2 mg/kg, po. The following applies: in vivo, read-out: Fabs. Details: dose 2 mg/kg, route oral. It counts as ADME, organism-based, Canis lupus familiaris.
Data set [4] is described as follows: Plasma clearance in Beagle dog at 0.5 mg/kg, iv. Set-up: dose 0.5 mg/kg, route intravenous. It counts as ADME, organism-based, Canis lupus familiaris.
Data set [5] concerns Canis familiaris. Briefly: Unbound plasma clearance in Beagle dog at 0.5 mg/kg, iv. It counts as ADME, organism-based, Canis lupus familiaris. Details: dose 0.5 mg/kg, route intravenous. The following applies: in vivo.
Data set [6] in a line: Fraction unbound in Beagle dog liver microsomes at 1 uM. Format: ADME, Canis lupus familiaris, Microsome.
A short description of data set [7]: Elimination half life in Beagle dog at 0.5 mg/kg, iv. Set-up: dose 0.5 mg/kg, route intravenous. The conditions noted are these: in vivo. Format: ADME, organism-based, Canis lupus familiaris.
A short description of data set [8]: Oral bioavailability in Beagle dog at 2 mg/kg. Format: ADME, organism-based, Canis lupus familiaris. The following applies: in vivo.
Data set [9] can be described thus: Metabolic stability in Beagle dog liver microsomes assessed as half life at 1 uM. It counts as ADME, Canis lupus familiaris, Microsome.
Data set [10] in a line: Metabolic stability in human liver microsomes assessed as half life at 1 uM. It counts as ADME, Microsome.
Data set [11] can be described thus: Lipophilicity, log D in 0.1M potassium phosphate buffer at pH 7.4. Format: physicochemical.
Data set [12] in a line: Fraction unbound in human liver microsomes at 1 uM. Format: ADME, Microsome.
The test system of the next data set is Liver microsomes. Briefly: Unbound intrinsic clearance in human liver microsomes at 1 uM. It counts as ADME, Microsome.
Data set [13] can be described thus: Protein binding in Beagle dog plasma at 1 ug/ml. It counts as ADME, cell-free, Canis lupus familiaris. The conditions noted are these: read-out: PPB (converted).
Data set [14] can be described thus: Volume of distribution in Beagle dog at 0.5 mg/kg, iv. It counts as ADME, organism-based, Canis lupus familiaris. Set-up: dose 0.5 mg/kg, route intravenous. The conditions noted are these: in vivo.
A short description of data set [15]: Oral absorption in Beagle dog at 0.5 mg/kg, po. Format: ADME, organism-based, Canis lupus familiaris. Set-up: dose 0.5 mg/kg, route oral. The following applies: in vivo, read-out: Fabs.
The nature of data set [16]: Oral bioavailability in Beagle dog at 0.5 mg/kg. Format: ADME, organism-based, Canis lupus familiaris. The conditions noted are these: in vivo.
Data set [17] can be described thus: Metabolic stability in Sprague-Dawley rat bile assessed as drug remaining. Format: ADME.
Data set [18] is described as follows: Metabolic stability in Sprague-Dawley rat assessed as hepatic extraction ratio. The conditions noted are these: liver. Format: ADME, tissue-based.
Data set [19] is described as follows: Metabolic stability in Sprague-Dawley rat liver microsomes assessed as half life. It counts as ADME, Microsome.
Data set [20] relates to Rattus norvegicus. The experiment in a line: Unbound plasma clearance in Sprague-Dawley rat at 3 mg/kg, iv. Format: ADME, organism-based. Details: dose 3 mg/kg, route intravenous. The following applies: in vivo.
Data set [21] can be described thus: Plasma clearance in Sprague-Dawley rat at 3 mg/kg, iv. Details: dose 3 mg/kg, route intravenous. Format: ADME, organism-based.
Data set [22] relates to Rattus norvegicus. The experiment in a line: Unbound volume of distribution in Sprague-Dawley rat at 3 mg/kg, iv. It counts as ADME, organism-based. Set-up: dose 3 mg/kg, route intravenous. The conditions noted are these: in vivo.
The next data set concerns Hepatocyte. The experiment in a line: Drug uptake in Sprague-Dawley rat hepatocytes assessed per 10^6 cells. It counts as ADME, cell-based.
Data set [23] in a line: Drug uptake in Sprague-Dawley rat hepatocytes. Format: ADME, cell-based, Hepatocyte.
The species named for another data set is Homo sapiens. The experiment in a line: Protein binding in human plasma at 1 ug/ml. The conditions noted are these: read-out: PPB (converted).
Data set [24] can be described thus: Elimination half life in Sprague-Dawley rat at 3 mg/kg, iv. It counts as ADME, organism-based. Set-up: dose 3 mg/kg, route intravenous. The following applies: in vivo.
The nature of data set [25]: Protein binding in Sprague-Dawley rat plasma at 1 ug/ml. The following applies: read-out: PPB (converted). It counts as ADME, cell-free.
The nature of data set [26]: Volume of distribution in Sprague-Dawley rat at 3 mg/kg, iv. The following applies: in vivo. It counts as ADME, organism-based. Details: dose 3 mg/kg, route intravenous.

By pKa is commonly meant the pH at which an ionisable group is half protonated. The clearance is the rate of elimination divided by the concentration. Broadly, the half-life is the time in which the quantity being followed falls by half. One may read the bioavailability as dose-corrected exposure relative to a reference, in per cent. A higher bioavailability goes with good availability. As a reminder, the logD is lipophilicity at a set pH, counting ionised and neutral species. For `COc1cc2nc(N3CCCN(C(=O)N4CCOCC4)CC3)nc(N)c2c(-c2ccccn2)c1OC`, the CL with Liver is 41 mL/min/kg; in the data set on Canis familiaris [5] it was 60 mL/min/kg; in the data set on Liver microsomes it was 34 mL/min/kg. Also, the Vd was 4 L/kg in the data set with Canis familiaris [1] and 2.2 L/kg in [14]. The molecule also showed a pKa in data set [2] of 6.9. Moreover, the Fa in data set [3] was 100%. In data set [4], this molecule displayed a clearance of 20 mL/min/kg. The fraction unbound at 1 µM in [6] stood at 0.939; in data set [12], 1. Moreover, the half-life in [7] is 1.6 h. Besides, in [8], the bioavailability was found to be 63%. The half-life at 1 µM in data set [9] is 0.767 h; in data set [10], 0.15 h. Also, the logD in [11] worked out at 1.5. Besides, the fraction unbound at 1 ug/ml in data set [13] is 0.56.

Take `COc1cc2nc(N3CCCN(C(=O)N4CCOCC4)CC3)cc(N)c2c(-c2ccccc2)c1OC`: the CL in the data set with Liver amounted to 122 mL/min/kg; with Canis familiaris [5] it was 88 mL/min/kg; with Liver microsomes, 82 mL/min/kg. For the same molecule, the results for the Vd (in the data set with Canis familiaris [1]; in data set [14]) were 23 L/kg and 2.8 L/kg, respectively. For the same molecule, the Fa in data set [15] amounted to 29%. This molecule also yielded a pKa in data set [2] of 8.5. For the same molecule, in [16], the bioavailability was found to be 24%. This molecule also registered a clearance in data set [4] of 8.8 mL/min/kg. Further, the fraction unbound at 1 µM in [6] turned out to be 0.59; in data set [12], 0.414. For the same molecule, the half-life in [7] is 3.6 h. The half-life at 1 µM in data set [9] amounted to 0.417 h; in data set [10], 0.15 h. Moreover, the logD in [11] turned out to be 1.8. Also, in [13], the fraction unbound at 1 ug/ml was 0.12.

On to `COc1cc2c(cc1OC)CN(c1cc(N3CCCN(C(=O)N4CC(O)C(O)C4)CC3)nc3cc(OC)c(OC)cc13)CC2` (stereo unspecified), for which, in [17], the Stability stood at 90%. The hepatic extraction ratio in data set [18] turned out to be 0.8. In data set [19], the half-life was over 2 h.

Turning to `COc1cc2nc(N3CCCN(C(=O)N4CCOCC4)CC3)cc(N)c2c(-c2ncco2)c1OC`, the Vd was found to be 4.5 L/kg in the data set on Canis familiaris [1] and 1 L/kg in data set [14]. For the same molecule, the Fa in data set [15] was 86%. In [2], this molecule had a pKa of 7.5. Besides, the bioavailability in [16] is 76%. This molecule gave a clearance in data set [4] of 5.9 mL/min/kg. Besides, the fraction unbound at 1 µM in data set [6] stood at 0.962; in [12], 0.745. This molecule showed a half-life in [7] of 1.9 h. Moreover, the half-life at 1 µM was 1.33 h in [9] and 0.317 h in [10]. Moreover, the log distribution coefficient (logD) in [11] amounted to 1.1. Also, the fraction unbound at 1 ug/ml in data set [13] is 0.22.

`COc1cc2nc(N3CCCN(C(=O)N4CC(O)C(O)C4)CC3)nc(N3CC4C(CC(=O)OC(C)(C)C)C4C3)c2cc1OC` (stereo unspecified): in [17], the Stability is listed as 90%. The hepatic extraction ratio in data set [18] was 0.75. For the same molecule, the half-life in data set [19] was over 2 h.

For orientation: Vmax means the rate approached at saturating substrate. What is called Km is the concentration of substrate that gives half-maximal velocity. On to `COc1cc2c(cc1OC)CN(c1nc(N3CCCN(C(=O)N4CC(O)C(O)C4)CC3)nc3cc(OC)c(OC)cc13)CC2` (stereo unspecified), for which the Vd with Canis familiaris [1] came out at 100 L/kg; in the data set on Rattus norvegicus [22], 186 L/kg; in data set [14], 10 L/kg; in data set [26] it was 9.3 L/kg. The molecule further gave a pKa in [2] of 6.2. Moreover, the Stability in [17] turned out to be 90%. The figures for the CL in the data set on Rattus norvegicus [20] and in the data set with Canis familiaris [5] were 2700 mL/min/kg and 470 mL/min/kg, respectively. In [18], the hepatic extraction ratio came out at 0.7. Further, the clearance in [4] amounted to 47 mL/min/kg; in data set [21], 135 mL/min/kg. Also, the half-life in data set [7] was 2.4 h; in data set [19], over 2 h; in data set [24] it was 1.4 h. The Vmax in the data set with Hepatocyte was 481 pmol/min. Further, in data set [23], the Km was determined as 6.5 µM. Besides, the logD in data set [11] was 4. Also, the fraction unbound at 1 ug/ml in the data set listed under Homo sapiens was 0.03; in data set [13] it was 0.1; in data set [25] it was 0.05.
